# Measurements published in US10112958B2, “N-[2-(2-amino-6,6-disubstituted-4,4a,5,6-tetrahydropyrano[3,4-d][1,3]thiazin-8a(8H)-YL)-1,3-thiazol-4-YL] amides” (Pfizer Inc., priority 2015, dated 2018).
# Biological target: T1, BACE1 enzyme (Homo sapiens, UniProt P56817)
# T1 construct: transfected with a soluble BACE construct (BACE1deltaTM96His); His (C); made in house; host or cells: CHO-K1 cells (secreted into conditioned media)
# Test: BACE1 Cell-Free Assay (fluorescence polarization, cleavage of synthetic APP substrate)
# Type: biochemical
# Conditions: geometric mean of 2-4 determinations unless otherwise indicated (b: ≥5 determinations; c: single determination); 0.1 nM BACE1, 150 nM peptide substrate, pH 4.5, 3 hours at 37° C.
# Text: BACE1 Cell-Free Assay: Beta-secretase (BACE) is one of the enzymes involved in the generation of the amyloid beta peptide found in the amyloid plaques of Alzheimer's disease patients. This assay measures the inhibition of the beta-secretase enzyme as it cleaves a non-native peptide.
# A synthetic APP substrate that can be cleaved by beta-secretase having N-terminal biotin and made fluorescent by the covalent attachment of Oregon Green at the Cys residue is used to assay beta-secretase activity in the presence or absence of the inhibitory compounds. The substrate is Biotin-GLTNIKTEEISEISY^EVEFR-C[Oregon Green]KK-OH. The BACE1 enzyme is affinity purified material from conditioned media of CHO-K1 cells that have been transfected with a soluble BACE construct (BACE1deltaTM96His). Compounds are incubated in a ½ log dose response curve from a top concentration of 100 μM with BACE1 enzyme and the biotinylated fluorescent peptide in 384-well black plates (Thermo Scientific #4318). BACE1 is at a final concentration of 0.1 nM with a final concentration of peptide substrate of 150 nM in a reaction volume of 30 μL assay buffer [100 mM sodium acetate, pH 4.5 (brought to pH with acetic acid), and 0.001% Tween-20]. Plates are covered and incubated for 3 hours at 37° C. The reaction is stopped with the addition of 30 μL of 1.5 μM Streptavidin (Pierce, #21125). After a 10 minute incubation at room temperature, plates are read on a PerkinElmer EnVision for fluorescence polarization (Ex485 nm/Em530 nm). The activity of the beta-secretase enzyme is detected by changes in the fluorescence polarization that occur when the substrate is cleaved by the enzyme.
# T1 sequence (P56817 46-457 limits assumed): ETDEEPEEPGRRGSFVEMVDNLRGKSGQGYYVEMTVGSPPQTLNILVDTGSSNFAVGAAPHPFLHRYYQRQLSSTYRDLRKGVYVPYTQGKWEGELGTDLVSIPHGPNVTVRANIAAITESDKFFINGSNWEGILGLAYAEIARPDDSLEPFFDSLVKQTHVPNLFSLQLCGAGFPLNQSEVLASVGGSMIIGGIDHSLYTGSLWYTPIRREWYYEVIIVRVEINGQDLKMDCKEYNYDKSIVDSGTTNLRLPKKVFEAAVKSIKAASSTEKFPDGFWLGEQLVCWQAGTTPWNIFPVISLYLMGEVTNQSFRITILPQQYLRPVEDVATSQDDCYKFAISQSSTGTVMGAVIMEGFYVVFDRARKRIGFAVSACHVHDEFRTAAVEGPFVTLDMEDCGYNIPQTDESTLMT
row,SMILES,IC50 [nM]
1,"CC[C@]1(C)C[C@@H]2CSC(N)=N[C@]2(c2nc(NC(=O)c3ccc(OC(F)F)cn3)cs2)CO1 [Example 28, N-{2-[(4aS,6R,8aS)-2-amino-6-ethyl-6-methyl-4,4a,5,6-tetrahydropyrano[3,4-d][1,3]thiazin-8a(8H)-yl]-1,3-thiazol-4-yl}-5-(difluoromethoxy)pyridine-2-carboxamide]",14800
2,"NC1=N[C@]2(c3nc(NC(=O)c4ccc(OC(F)F)cn4)cs3)COC3(CCC3)C[C@@H]2CS1 (single isomer, unassigned) [Example 4, N-{2-[(4a′S,8a′S)-2′-amino-4a′,5′-dihydro-4′H-spiro[cyclobutane-1,6′-pyrano[3,4-d] [1,3]thiazin]-8a′(8′H)-yl]-1,3-thiazol-4-yl}-5-(difluoromethoxy)pyridine-2-carboxamide]",> 21100
3,"CC1(C)C[C@H]2CSC(N)=N[C@@]2(c2nc(NC(=O)C(C)(C)F)cs2)CO1 [Example 31, N-{2-[(4aR,8aR)-2-amino-6,6-dimethyl-4,4a,5,6-tetrahydropyrano[3,4-d][1,3]thiazin-8a(8H)-yl]-1,3-thiazol-4-yl}-2-fluoro-2-methylpropanamide]",911
4,"NC1=N[C@@]2(c3nc(NC(=O)c4ccc(OC(F)F)cn4)cs3)COC3(CCC3)C[C@H]2CS1 (racemic) [Example 3, N-{2-[cis-2′-amino-4a′,5′-dihydro-4′H-spiro[cyclobutane-1,6′-pyrano[3,4-d][1,3]thiazin]-8a′(8′H)-yl]-1,3-thiazol-4-yl}-5-(difluoromethoxy)pyridine-2-carboxamide]",252
5,"CC[C@]1(C)C[C@H]2CSC(N)=N[C@@]2(c2nc(NC(=O)c3ccc(OC(F)F)cn3)cs2)CO1 [Example 27, N-{2-[(4aR,6R,8aR)-2-amino-6-ethyl-6-methyl-4,4a,5,6-tetrahydropyrano[3,4-d][1,3]thiazin-8a(8H)-yl]-1,3-thiazol-4-yl}-5-(difluoromethoxy)pyridine-2-carboxamide]",1830
6,"CC(F)(F)Oc1ccc(C(=O)Nc2csc([C@]34COC(C)(C)C[C@H]3CSC(N)=N4)n2)nc1 (single isomer, unassigned) [Example 17]",416
7,"CC1(C)C[C@@H]2CSC(N)=N[C@]2(c2nc(NC(=O)c3coc(CF)n3)cs2)CO1 (single isomer, unassigned) [Example 22]",15100
8,"COC(C)(C)C(=O)Nc1csc([C@]23COC(C)(C)C[C@H]2CSC(N)=N3)n1 [Example 32, N-{2-[(4aR,8aR)-2-amino-6,6-dimethyl-4,4a,5,6-tetrahydropyrano[3,4-d][1,3]thiazin-8a(8H)-yl]-1,3-thiazol-4-yl}-2-methoxy-2-methylpropanamide]",1690
9,"NC1=N[C@@]2(c3nc(NC(=O)c4ccc(F)cn4)cs3)COC3(CCC3)C[C@H]2CS1 [Example 41, N-{2-[(4a′R,8a′R)-2′-amino-4a′,5′-dihydro-4′H-spiro[cyclobutane-1,6′-pyrano[3,4-d] [1,3]thiazin]-8a′(8′H)-yl]-1,3-thiazol-4-yl}-5-fluoropyridine-2-carboxamide]",714
10,"CC1(C)C[C@H]2CSC(N)=N[C@@]2(c2nc(NC(=O)c3cnc(OC(F)F)cn3)cs2)CO1 (single isomer, unassigned) [Example 14]",167
11,"CC[C@@]1(C)C[C@@H]2CSC(N)=N[C@]2(c2nc(NC(=O)c3ccc(OC(F)F)cn3)cs2)CO1 [Example 26, N-{2-[(4aS,6S,8aS)-2-amino-6-ethyl-6-methyl-4,4a,5,6-tetrahydropyrano[3,4-d][1,3]thiazin-8a(8H)-yl]-1,3-thiazol-4-yl}-5-(difluoromethoxy)pyridine-2-carboxamide]",406
12,"C[C@]1(CF)C[C@H]2CSC(N)=N[C@@]2(c2nc(NC(=O)c3ccc(OC(F)F)cn3)cs2)CO1 [Example 35, N-{2-[(4aR,6R,8aR)-2-amino-6-(fluoromethyl)-6-methyl-4,4a,5,6-tetrahydropyrano[3,4-d][1,3]thiazin-8a(8H)-yl]-1,3-thiazol-4-yl}-5-(difluoromethoxy) pyridine-2-carboxamide]",176
13,"CC1(C)C[C@H]2CSC(N)=N[C@@]2(c2nc(NC(=O)C34CC(C3)C4)cs2)CO1 [Example 33, N-{2-[(4aR,8aR)-2-amino-6,6-dimethyl-4,4a,5,6-tetrahydropyrano[3,4-d][1,3]thiazin-8a(8H)-yl]-1,3-thiazol-4-yl} bicyclo[1.1.1]pentane-1-carboxamide]",734
14,"CC(F)(F)COc1cnc(C(=O)Nc2csc([C@@]34COC(C)(C)C[C@@H]3CSC(N)=N4)n2)cn1 (single isomer, unassigned) [Example 18]",61700
15,"NC1=N[C@@]2(c3nc(NC(=O)c4ccc(OC(F)F)cn4)cs3)COC(CF)(CF)C[C@H]2CS1 [Example 10, N-{2-[(4aR,8aR)-2-amino-6,6-bis(fluoromethyl)-4,4a,5,6-tetrahydropyrano[3,4-d][1,3]thiazin-8a(8H)-yl]-1,3-thiazol-4-yl}-5-(difluoromethoxy)pyridine-2-carboxamide]",565
16,"NC1=N[C@]2(c3nc(NC(=O)c4ccc(OC(F)F)cn4)cs3)COC3(CC3)C[C@@H]2CS1 (single isomer, unassigned) [Example 38, N-{2-[(4a′S,8a′S)-2′-amino-4a′,5′-dihydro-4′H-spiro[cyclopropane-1,6′-pyrano[3,4-d][1,3]thiazin]-8a′(8′H)-yl]-1,3-thiazol-4-yl}-5-(difluoromethoxy)pyridine-2-carboxamide]",34500

# The next compounds have a lower IC50 than those just listed; values first:
row,IC50 [nM],SMILES
1,41,"CC#CCOc1cnc(C(=O)Nc2csc([C@]34COC(C)(C)C[C@H]3CSC(N)=N4)n2)cn1 (single isomer, unassigned) [Example 21]"
2,47,"Cc1cc(OC(F)F)cnc1C(=O)Nc1csc([C@]23COC(C)(C)C[C@H]2CSC(N)=N3)n1 [Example 24, N-{2-[(4aR,8aR)-2-amino-6,6-dimethyl-4,4a,5,6-tetrahydropyrano[3,4-d][1,3]thiazin-8a(8H)-yl]-1,3-thiazol-4-yl}-5-(difluoromethoxy)-3-methylpyridine-2-carboxamide]"
3,88,"NC1=N[C@@]2(c3nc(NC(=O)c4ccc(Cl)cn4)cs3)COC3(CCC3)C[C@H]2CS1 [Example 6, N-{2-[(4a′R,8a′R)-2′-amino-4a′,5′-dihydro-4′H-spiro[cyclobutane-1,6′-pyrano[3,4-d][1,3]thiazin]-8a′(8′H)-yl]-1,3-thiazol-4-yl}-5-chloropyridine-2-carboxamide]"
4,41,"CC[C@@]1(C)C[C@H]2CSC(N)=N[C@@]2(c2nc(NC(=O)c3ccc(OC(F)F)cn3)cs2)CO1 [Example 8, N-{2-[(4aR,6S,8aR)-2-amino-6-ethyl-6-methyl-4,4a,5,6-tetrahydropyrano[3,4-d] [1,3]thiazin-8a(8H)-yl]-1,3-thiazol-4-yl}-5-(difluoromethoxy)pyridine-2-carboxamide]"
5,138,"NC1=N[C@@]2(c3nc(NC(=O)c4ccc(OC(F)F)cn4)cs3)COC3(CCC3)C[C@H]2CS1 (single isomer, unassigned) [Example 5, N-{2-[(4a′R,8a′R)-2′-amino-4a′,5′-dihydro-4′H-spiro[cyclobutane-1,6′-pyrano[3,4-d] [1,3]thiazin]-8a′(8′H)-yl]-1,3-thiazol-4-yl}-5-(difluoromethoxy)pyridine-2-carboxamide]"
6,59,"CC1(C)C[C@H]2CSC(N)=N[C@@]2(c2nc(NC(=O)c3ncc(OC(F)F)cc3Cl)cs2)CO1 [Example 30, N-{2-[(4aR,8aR)-2-amino-6,6-dimethyl-4,4a,5,6-tetrahydropyrano[3,4-d][1,3]thiazin-8a(8H)-yl]-1,3-thiazol-4-yl}-3-chloro-5-(difluoromethoxy)pyridine-2-carboxamide]"
7,60,"CC[C@@]1(C)C[C@H]2CSC(N)=N[C@@]2(c2nc(NC(=O)c3ncc(OC(F)F)cc3C)cs2)CO1 [Example 36, N-{2-[(4aR,6S,8aR)-2-amino-6-ethyl-6-methyl-4,4a,5,6-tetrahydropyrano[3,4-d][1,3]thiazin-8a(8H)-yl]-1,3-thiazol-4-yl}-5-(difluoromethoxy)-3-methylpyridine-2-carboxamide]"
8,116,"CC1(C)C[C@H]2CSC(N)=N[C@@]2(c2nc(NC(=O)c3ccc(OC(F)F)cn3)cs2)CO1 [Example 7, N-{2-[(4aR,8aR)-2-amino-6,6-dimethyl-4,4a,5,6-tetrahydropyrano[3,4-d][1,3]thiazin-8a(8H)-yl]-1,3-thiazol-4-yl}-5-(difluoromethoxy)pyridine-2-carboxamide]"
9,22,"CC1(C)C[C@H]2CSC(N)=N[C@@]2(c2nc(NC(=O)c3ccn(C(F)F)n3)cs2)CO1 (single isomer, unassigned) [Example 12]"
10,88,"CC#CCOc1ccc(C(=O)Nc2csc([C@]34COC(C)(C)C[C@H]3CSC(N)=N4)n2)nc1 (single isomer, unassigned) [Example 2]"
